Experimental data taken from BindingDB's records for doi:10.1016/j.bmcl.2009.09.123 (Genomics Institute of The Novartis Research Foundation, 2009).

Columns and labels:
[1] = Inhibition of Tel-fused LCK expressed in mouse BAF3 cells
[2] = Inhibition of Tel-fused KDR expressed in mouse BAF3 cells
[3] = Inhibition of Tel-fused LYN expressed in mouse BAF3 cells
[4] = Inhibition of Tel-fused SRC expressed in mouse BAF3 cells

Cc1ccc(C(=O)Nc2cccc(C(F)(F)F)c2)cc1Nc1nc2ccccc2n1-c1cc(NCCN2CCN(C)CC2)ncn1 [4-methyl-3-(1-(6-(2-(4-methylpiperazin-1-yl)ethylamino)pyrimidin-4-yl)-1H-benzo[d]imidazol-2-ylamino)-N-(3-(trifluoromethyl)phenyl)benzamide]
IC50 [1]: 0.045 µM
IC50 [2]: 0.185 µM
IC50 [3]: 0.113 µM
IC50 [4]: 0.527 µM

Cc1cccc(NC(=O)c2ccc(C)c(Nc3nc4ccccc4n3-c3cc(NCCN4CCN(C)CC4)ncn3)c2)c1 [4-methyl-3-(1-(6-(2-(4-methylpiperazin-1-yl)ethylamino)pyrimidin-4-yl)-1H-benzo[d]imidazol-2-ylamino)-N-m-tolylbenzamide]
IC50 [1]: 0.762 µM
IC50 [2]: 2.09 µM
IC50 [3]: 1.66 µM
IC50 [4]: 1.54 µM

Cc1ccc(C(=O)Nc2cccc(C(F)(F)F)c2)cc1Nc1nc2ccccc2n1-c1cc(NCCCN2CCN(C)CC2)ncn1 [4-methyl-3-(1-(6-(3-(4-methylpiperazin-1-yl)propylamino)pyrimidin-4-yl)-1H-benzo[d]imidazol-2-ylamino)-N-(3-(trifluoromethyl)phenyl)benzamide]
IC50 [1]: 0.023 µM
IC50 [2]: 0.117 µM
IC50 [3]: 0.084 µM
IC50 [4]: 0.364 µM

Cc1cccc(NC(=O)c2ccc(C)c(Nc3nc4ccccc4n3-c3cc(NCCCN4CCN(C)CC4)ncn3)c2)c1 [4-methyl-3-(1-(6-(3-(4-methylpiperazin-1-yl)propylamino)pyrimidin-4-yl)-1H-benzo[d]imidazol-2-ylamino)-N-m-tolylbenzamide]
IC50 [1]: 0.337 µM
IC50 [2]: 1.11 µM
IC50 [3]: 1.23 µM
IC50 [4]: 1.41 µM

CCN(CC)CCNc1cc(-n2c(Nc3cc(NC(=O)c4cccc(C(F)(F)F)c4)ccc3C)nc3ccccc32)ncn1 [N-(3-(1-(6-(2-(diethylamino)ethylamino)pyrimidin-4-yl)-1H-benzo[d]imidazol-2-ylamino)-4-methylphenyl)-3-(trifluoromethyl)benzamide]
IC50 [1]: 0.418 µM
IC50 [2]: 1.73 µM
IC50 [3]: 0.642 µM
IC50 [4]: 0.398 µM

Cc1ccc(NC(=O)c2cccc(C(F)(F)F)c2)cc1Nc1nc2ccccc2n1-c1cc(NCCN)ncn1 [N-(3-(1-(6-(2-aminoethylamino)pyrimidin-4-yl)-1H-benzo[d]imidazol-2-ylamino)-4-methylphenyl)-3-(trifluoromethyl)benzamide]
IC50 [1]: 0.47 µM
IC50 [2]: 1.75 µM
IC50 [3]: 1.47 µM
IC50 [4]: 1.29 µM

Cc1ccc(NC(=O)c2cccc(C(F)(F)F)c2)cc1Nc1nc2ccccc2n1-c1cc(NCCO)ncn1 [N-(3-(1-(6-(2-hydroxyethylamino)pyrimidin-4-yl)-1H-benzo[d]imidazol-2-ylamino)-4-methylphenyl)-3-(trifluoromethyl)benzamide]
IC50 [1]: 0.229 µM
IC50 [2]: 0.59 µM
IC50 [3]: 0.4 µM
IC50 [4]: 1.7 µM

Cc1ccc(NC(=O)c2cccc(C(F)(F)F)c2)cc1Nc1nc2ccccc2n1-c1cc(NCCCN)ncn1 [N-(3-(1-(6-(3-aminopropylamino)pyrimidin-4-yl)-1H-benzo[d]imidazol-2-ylamino)-4-methylphenyl)-3-(trifluoromethyl)benzamide]
IC50 [1]: 0.387 µM
IC50 [2]: 1.47 µM
IC50 [3]: 1.12 µM
IC50 [4]: 1.32 µM

Cc1ccc(NC(=O)c2cccc(C(F)(F)F)c2)cc1Nc1nc2ccccc2n1-c1cc(NCCCCN(C)C)ncn1 [N-(3-(1-(6-(4-(dimethylamino)butylamino)pyrimidin-4-yl)-1H-benzo[d]imidazol-2-ylamino)-4-methylphenyl)-3-(trifluoromethyl)benzamide]
IC50 [1]: 0.108 µM
IC50 [2]: 1.36 µM
IC50 [3]: 0.399 µM
IC50 [4]: 1.21 µM

Cc1ccc(NC(=O)c2cccc(C(F)(F)F)c2)cc1Nc1nc2ccccc2n1-c1cc(NCCCCN)ncn1 [N-(3-(1-(6-(4-aminobutylamino)pyrimidin-4-yl)-1H-benzo[d]imidazol-2-ylamino)-4-methylphenyl)-3-(trifluoromethyl)benzamide]
IC50 [1]: 0.366 µM
IC50 [2]: 0.599 µM
IC50 [3]: 0.457 µM
IC50 [4]: 1.66 µM

Cc1ccc(NC(=O)c2cccc(C(F)(F)F)c2)cc1Nc1nc2ccccc2n1-c1cc(N[C@H]2CC[C@H](N)CC2)ncn1 [N-(3-(1-(6-(trans-4-aminocyclohexylamino)pyrimidin-4-yl)-1H-benzo[d]imidazol-2-ylamino)-4-methylphenyl)-3-(trifluoromethyl)benzamide]
IC50 [1]: 0.392 µM
IC50 [2]: 0.609 µM
IC50 [3]: 0.547 µM
IC50 [4]: 0.739 µM

Cc1ccc(NC(=O)c2cc(CN3CCN(C)CC3)n(C(C)(C)C)n2)cc1Nc1nc2ccccc2n1-c1cc(N)ncn1 [N-(3-(1-(6-aminopyrimidin-4-yl)-1H-benzo[d]imidazol-2-ylamino)-4-methylphenyl)-1-tert-butyl-5-((4-methylpiperazin-1-yl)methyl)-1H-pyrazole-3-carboxamide]
IC50 [1]: 0.018 µM
IC50 [2]: 0.063 µM
IC50 [3]: 0.088 µM
IC50 [4]: 0.249 µM

Cc1ccc(NC(=O)c2cc(Cl)cc(Cl)c2)cc1Nc1nc2ccccc2n1-c1cc(N)ncn1 [N-(3-(1-(6-aminopyrimidin-4-yl)-1H-benzo[d]imidazol-2-ylamino)-4-methylphenyl)-3,5-dichlorobenzamide]
IC50 [1]: 1.07 µM
IC50 [2]: 6.37 µM
IC50 [3]: 3.61 µM
IC50 [4]: 9.69 µM

Cc1ccc(NC(=O)c2cc(OC3CCN(C)CC3)cc(C(F)(F)F)c2)cc1Nc1nc2ccccc2n1-c1cc(N)ncn1 [N-(3-(1-(6-aminopyrimidin-4-yl)-1H-benzo[d]imidazol-2-ylamino)-4-methylphenyl)-3-(1-methylpiperidin-4-yloxy)-5-(trifluoromethyl)benzamide]
IC50 [1]: 0.007 µM
IC50 [2]: 0.066 µM
IC50 [3]: 0.005 µM
IC50 [4]: 0.039 µM

CCN1CCN(c2cc(C(=O)Nc3ccc(C)c(Nc4nc5ccccc5n4-c4cc(N)ncn4)c3)cc(C(F)(F)F)c2)CC1 [N-(3-(1-(6-aminopyrimidin-4-yl)-1H-benzo[d]imidazol-2-ylamino)-4-methylphenyl)-3-(4-ethylpiperazin-1-yl)-5-(trifluoromethyl)benzamide]
IC50 [1]: 0.004 µM
IC50 [2]: 0.005 µM
IC50 [3]: 0.009 µM
IC50 [4]: 0.057 µM

Cc1ccc(NC(=O)c2cc(N3CCN(C)CC3)cc(C(F)(F)F)c2)cc1Nc1nc2ccccc2n1-c1cc(N)ncn1 [N-(3-(1-(6-aminopyrimidin-4-yl)-1H-benzo[d]imidazol-2-ylamino)-4-methylphenyl)-3-(4-methylpiperazin-1-yl)-5-(trifluoromethyl)benzamide]
IC50 [1]: 0.003 µM
IC50 [2]: 0.043 µM
IC50 [3]: 0.006 µM
IC50 [4]: 0.047 µM

Cc1ccc(NC(=O)c2cccc(C(F)(F)F)c2)cc1Nc1nc2ccccc2n1-c1cc(N)ncn1 [N-(3-(1-(6-aminopyrimidin-4-yl)-1H-benzo[d]imidazol-2-ylamino)-4-methylphenyl)-3-(trifluoromethyl)benzamide]
IC50 [1]: 0.007 µM
IC50 [2]: 0.036 µM
IC50 [3]: 0.014 µM
IC50 [4]: 0.078 µM

CCN1CCN(Cc2ccc(C(=O)Nc3ccc(C)c(Nc4nc5ccccc5n4-c4cc(N)ncn4)c3)cc2Cl)CC1 [N-(3-(1-(6-aminopyrimidin-4-yl)-1H-benzo[d]imidazol-2-ylamino)-4-methylphenyl)-3-chloro-4-((4-ethylpiperazin-1-yl)methyl)benzamide]
IC50 [1]: 0.005 µM
IC50 [2]: 0.03 µM
IC50 [3]: 0.01 µM
IC50 [4]: 0.047 µM

Cc1ccc(NC(=O)c2cc(C3CC3)n[nH]2)cc1Nc1nc2ccccc2n1-c1cc(N)ncn1 [N-(3-(1-(6-aminopyrimidin-4-yl)-1H-benzo[d]imidazol-2-ylamino)-4-methylphenyl)-3-cyclopropyl-1H-pyrazole-5-carboxamide]
IC50 [1]: 0.05 µM
IC50 [2]: 0.048 µM
IC50 [3]: 0.096 µM
IC50 [4]: 0.056 µM

Cc1cccc(C(=O)Nc2ccc(C)c(Nc3nc4ccccc4n3-c3cc(N)ncn3)c2)c1 [N-(3-(1-(6-aminopyrimidin-4-yl)-1H-benzo[d]imidazol-2-ylamino)-4-methylphenyl)-3-methylbenzamide]
IC50 [1]: 0.032 µM
IC50 [2]: 0.28 µM
IC50 [3]: 0.082 µM
IC50 [4]: 0.49 µM

Cc1ccc(NC(=O)c2ccc(C(C)(C)C)s2)cc1Nc1nc2ccccc2n1-c1cc(N)ncn1 [N-(3-(1-(6-aminopyrimidin-4-yl)-1H-benzo[d]imidazol-2-ylamino)-4-methylphenyl)-5-tert-butylthiophene-2-carboxamide]
IC50 [1]: 0.004 µM
IC50 [2]: 0.004 µM
IC50 [3]: 0.005 µM
IC50 [4]: 0.004 µM

COc1cc(-n2c(Nc3cc(NC(=O)c4cccc(C(F)(F)F)c4)ccc3C)nc3ccccc32)ncn1 [N-(3-(1-(6-methoxypyrimidin-4-yl)-1H-benzo[d]imidazol-2-ylamino)-4-methylphenyl)-3-(trifluoromethyl)benzamide]
IC50 [1]: > 10 µM
IC50 [2]: > 10 µM
IC50 [3]: > 10 µM
IC50 [4]: > 10 µM

Cc1ccc(NC(=O)c2cccc(C(F)(F)F)c2)cc1Nc1nc2ccccc2n1-c1cc(NC2CCN(C)CC2)ncn1 [N-(4-methyl-3-(1-(6-(1-methylpiperidin-4-ylamino)pyrimidin-4-yl)-1H-benzo[d]imidazol-2-ylamino)phenyl)-3-(trifluoromethyl)benzamide]
IC50 [1]: 0.881 µM
IC50 [2]: 1.71 µM
IC50 [3]: 1.42 µM
IC50 [4]: 1.38 µM

Cc1ccc(NC(=O)c2cccc(C(F)(F)F)c2)cc1Nc1nc2ccccc2n1-c1cc(NCCN2CCN(C)CC2)ncn1 [N-(4-methyl-3-(1-(6-(2-(4-methylpiperazin-1-yl)ethylamino)pyrimidin-4-yl)-1H-benzo[d]imidazol-2-ylamino)phenyl)-3-(trifluoromethyl)benzamide]
IC50 [1]: 0.056 µM
IC50 [2]: 0.605 µM
IC50 [3]: 0.204 µM
IC50 [4]: 0.918 µM

Cc1ccc(NC(=O)c2cccc(C(F)(F)F)c2)cc1Nc1nc2ccccc2n1-c1cc(NCCc2ccccn2)ncn1 [N-(4-methyl-3-(1-(6-(2-(pyridin-2-yl)ethylamino)pyrimidin-4-yl)-1H-benzo[d]imidazol-2-ylamino)phenyl)-3-(trifluoromethyl)benzamide]
IC50 [1]: 0.171 µM
IC50 [2]: 0.549 µM
IC50 [3]: 0.259 µM
IC50 [4]: 0.524 µM
